Measured values: patent publication US12617818B2, “Compositions and methods for modulating myosin subfragment-2 coiled coil stability and methods for using them” (UNIVERSITY OF NORTH TEXAS, priority 2020, dated 2026)
Several values for one entry are separate records, joined by “and”; a condition that tells them apart may be missing. Equal entries are not always repeated.

Key:
[1] = tested on: rabbit skeletal myosin HMM; test: In vitro motility assay of actin thin filaments over myosin HMM; type: biochemical
Text: In vitro motility assay a classic method to determine the sliding velocity of actin thin filaments over immobilized myosin in the presence of ATP (Kron et al., 1991). The assay involves the immobilization of myosin either in thick filament assembly or through individual myosin molecule on a nitrocellulose or dichlorodimethylsilane treated coverslip. Fluorescently labelled actin thin filament is allowed to slide across the bound myosin molecule upon addition of ATP. Sliding of actin over myosin treated with myosin S2 binding proteins would establish their effect over acto-myosin interaction and overall force produced. Myosin heavy meromyosin would be enough to test the effect of stabilizer and destabilizer over the acto-myosin interaction, however to test the effect of MyBPC over myosin reconstituted in its thick filament form would be required since MyBPC binds to both light meromyosin and myosin S2. Myosin in its thick filament form will improve the binding of MyBPC to a myosin molecule rather than a single myosin molecule immobilized on a glass surface.
Rabbit skeletal myosin is dialyzed against buffer containing 0.5 M potassium chloride and 10 mM imidazole with pH 7.0 overnight to remove the impurities. Dialyzed myosin undergoes trypsin digestion with 1 mM magnesium chloride and α-chymotrypsin, digestion was stopped after addition of phenylmethylsulfonylfluoride in methanol at room temperature. Tryptic digest of myosin is dialyzed overnight at 4° C. against buffer containing 0.04 M potassium chloride and 10 mM imidazole with pH 7.0. Dialyzed tryptic digest of myosin is centrifuged at 21000 g for 60 minutes at 4° C. to yield myosin heavy meromyosin in the supernatant. This myosin heavy meromyosin achieved has a mixture of ATP sensitive and ATP insensitive heads. To purify myosin heavy meromyosin with ATP sensitive myosin S1 heads, F actin is added at an equimolar concentration to the unpurified myosin heavy meromyosin extract along with 1 mM ATP and magnesium chloride. Low salt assay buffer (25 mM potassium chloride, 10 mM imidazole, 2 mM magnesium chloride and 10 mM dithioerythritol with pH 7.0) was used as mixing solvent for the myosin heavy meromyosin purification step. Purified myosin heavy meromyosin with ATP sensitive heads are suspended in the supernatant when unpurified myosin heavy meromyosin with F actin, ATP and magnesium chloride is centrifuged with the speed of 21000 g at 4° C. ATP insensitive heads will bind F actin irreversibly thus forming the precipitate in the centrifugation step. Purified myosin heavy meromyosin with ATP sensitive heads are ready for the in vitro motility assay.
Rhodamine phalloidin labelling of F-actin F-actin and rhodamine phalloidin are mixed in 1:5 micro molar concentration ratio with low salt assay buffer. Rhodamine phalloidin binds in between the grooves of actin subunits of F-actin. The mixture of F-actin and rhodamine phalloidin is allowed to incubate overnight at 4° C. to allow maximal labelling of F-actin.
Glass coverslips are coated with freshly prepared 2% dichlorodimethylsilane in chloroform. Perfusion chamber is created by two halves of glass coverslips on a clean glass slide with help of vacuum grease. The perfusion chamber is then sealed with dichlorodimethylsilane treated coverslip with two side open to allow perfusion of buffer from one end and wicking on the opposite end. First step in preparation of slide is to immobilize either purified myosin heavy meromyosin or myosin thick filaments. These purified products are diluted with low salt assay buffer to achieve a final concentration of 0.1 μM before adding them in to perfusion chamber. Myosin heavy meromyosin or myosin thick filaments are allowed to immobilize on dichloro-dimethylsilane treated coverslip for a minute. Unbound myosin is washed away by low salt assay buffer once and multiple washes with assay buffer mixed with 0.5 mg/ml bovine serum albumin (AB-BSA) blocks the unbound protein. […]

[2] = target: T1, human cardiac myosin S2 peptide (Homo sapiens, UniProt P12883); test: Competitive ELISA (cELISA) against polyclonal anti-S2 antibody; type: binding; conditions: curve fit of OD vs peptide concentration; read-out: binding efficiency (Kd) to human cardiac myosin S2 peptide
T1 construct: The 19 residue peptide was chemically synthesized
Description: Phosphate buffer saline (PBS) contained 0.14 M sodium chloride, 2.7 mM potassium chloride, 1.5 mM potassium phosphate monobasic, and 8.1 mM sodium phosphate dibasic with pH 7.4. Detergent buffer was made with 0.05% triton X-100 in PBS, blocking buffer was made with 3% powdered milk in detergent buffer. Assay buffer contained 100 mM potassium phosphate dibasic, 100 mM potassium phosphate monobasic, 1 M potassium chloride and 10 mM magnesium chloride with pH 7.0. Stocks of primary antibody (polyclonal antibody anti-S2), rabbit skeletal myosin, human cardiac myosin S2 peptide, stabilizer and destabilizer peptide. Secondary antibody conjugated with alkaline phosphatase was anti-guinea pig immunoglobulin G (IgG)-alkaline phosphatase (Sigma-Aldrich, catalog number A5062) produced in goat and isolated by affinity chromatography. Substrate was 5-Bromo-4-chloro-3-indolyl phosphate (BCIP) tablets dissolved in 10 ml of distilled water per tablet and 96 well microtiter plate.
Competitive Enzyme Linked Immunosorbent Assay (cELISA) is a classical immunochemical test to validate the binding efficiency and specificity in lower molar concentrations (Yorde et al., 1976; Voller et al., 1978; Walker, J. M. 1996). In this assay the polyclonal antibody anti-S2 raised against single alpha helix of myosin S2 would be used to compete with stabilizer or destabilizer peptide to bind myosin S2 in rabbit skeletal myosin molecule as well as small human cardiac myosin S2 peptide. This cELISA, thus have two molecules polyclonal anti-S2 and stabilizer peptide which have two binding sites one on rabbit skeletal myosin and the other one being on small human cardiac myosin S2. Since both polyclonal anti-S2 and stabilizer peptide were designed against human β-cardiac myosin S2 they both would have a stronger affinity towards the smaller human β-cardiac myosin S2 peptide against the myosin S2 on rabbit skeletal myosin.
To test the binding specificity and efficiency of stabilizer or destabilizer peptide the following setup was used. Start of the setup would be to coat the wells with rabbit skeletal myosin molecule and add appropriate amount human cardiac myosin S2 peptide that would bind the primary polyclonal anti-S2 antibody and when washed there won't be enough primary polyclonal anti-S2 antibody to bind myosin S2 of rabbit skeletal myosin adsorbed on the wells. When alkaline phosphatase conjugated secondary antibody is added on to the wells, it won't have enough or none primary polyclonal anti-S2 antibody to bind. After addition of color developing BCIP substrate to the wells it would lead to low or no color development leading to lower optical density (OD). […]

Row | Structure (SMILES) | velocity distribution of actin thin filaments (histogram) ([1]; 20 nM and 100 nM peptide) | Average velocity of actin thin filaments ([1]; 20 nM peptide) | Average velocity of actin thin filaments ([1]; 100 nM peptide) | rise of motility of actin thin filaments ([1]; vs control) | Kd [2]
1 | CSCC[C@H](NC(=O)[C@H](CCC(=O)O)NC(=O)[C@H](CCCNC(=N)N)NC(=O)[C@H](CCC(=O)O)NC(=O)[C@H](CC(=O)O)NC(=O)[C@H](CCC(=O)O)NC(=O)[C@H](CC(C)C)NC(=O)[C@H](CCCNC(=N)N)NC(=O)[C@H](CCC(=O)O)NC(=O)[C@H](CC(N)=O)NC(=O)[C@H](CCSC)NC(=O)[C@@H](N)CCC(=O)O)C(=O)N[C@@H](CCCCN)C(=O)N[C@@H](C)C(=O)N[C@@H](CCC(=O)O)C(=O)N[C@@H](CC(C)C)C(=O)N[C@H](C(=O)N[C@@H](C)C(=O)N[C@@H](CCCCN)C(=O)O)[C@@H](C)O [Destabilizer] | ~8.0 microns/second | 8.22±0.254 microns/second | 8.39±0.397 microns/second | 18% | 6 nM and 1 nM
2 | C[C@H](NC(=O)[C@H](CCCCN)NC(=O)[C@H](Cc1ccccc1)NC(=O)[C@H](CCCCN)NC(=O)[C@H](CCCCN)NC(=O)[C@H](CCCCN)NC(=O)[C@H](CCCCN)NC(=O)[C@H](CCCCN)NC(=O)[C@H](CCCCN)NC(=O)[C@H](CCCCN)NC(=O)[C@@H](N)CCCCN)C(=O)N[C@@H](CCCCN)C(=O)N[C@@H](CCCCN)C(=O)N[C@@H](CCCCN)C(=O)N[C@@H](CCCCN)C(=O)N[C@@H](CCCCN)C(=O)N[C@@H](CCCCN)C(=O)O [Stabilizer] |  | 6.18±0.28 microns/second | 6.21±0.14 microns/second |  | 1 nM
